{"source": "ChEMBL document CHEMBL2086254", "about": "“Synthesis and identification of novel indolo[2,3-a]pyrimido[5,4-c]carbazoles as a new class of anti-cancer agents” (Eur J Med Chem, 2012)", "assay_type_in_all_cases": "functional", "key": {"A498": {"tested_on": "A498", "assay": "Cytotoxicity against human A498 cells assessed as cell growth at 10 uM after 48 hrs by SRB assay relative to control", "conditions": "A498, 48 h, read-out: Activity"}, "RXF 393": {"tested_on": "RXF 393", "assay": "Cytotoxicity against human RXF393 cells assessed as cell growth at 10 uM after 48 hrs by SRB assay relative to control", "conditions": "RXF 393, 48 h, read-out: Activity"}, "[1]": {"assay": "Cytotoxicity against human Hs 578T cells assessed as cell growth at 10 uM after 48 hrs by SRB assay relative to control", "conditions": "read-out: Activity"}, "BT-549": {"tested_on": "BT-549", "assay": "Cytotoxicity against human BT549 cells assessed as cell growth at 10 uM after 48 hrs by SRB assay relative to control", "conditions": "BT-549, 48 h, read-out: Activity"}, "T47D": {"tested_on": "T47D", "assay": "Cytotoxicity against human T47D cells assessed as cell growth at 10 uM after 48 hrs by SRB assay relative to control", "conditions": "read-out: Activity"}, "SNB-75": {"tested_on": "SNB-75", "assay": "Cytotoxicity against human SNB75 cells assessed as cell growth at 10 uM after 48 hrs by SRB assay relative to control", "conditions": "SNB-75, 48 h, read-out: Activity"}, "MDA-MB-435": {"tested_on": "MDA-MB-435", "assay": "Cytotoxicity against human MDA-MB-435 cells assessed cell growth at 10 uM after 48 hrs by SRB assay relative to control"}, "IGROV-1": {"tested_on": "IGROV-1", "assay": "Cytotoxicity against human IGROV1 cells assessed as cell growth at 10 uM after 48 hrs by SRB assay relative to control", "conditions": "IGROV-1, 48 h, read-out: Activity"}, "UO-31": {"tested_on": "UO-31", "assay": "Cytotoxicity against human UO31 cells assessed as cell growth at 10 uM after 48 hrs by SRB assay relative to control", "conditions": "UO-31, 48 h, read-out: Activity"}, "MCF7": {"tested_on": "MCF7", "assay": "Cytotoxicity against human MCF7 cells assessed as cell growth at 10 uM after 48 hrs by SRB assay relative to control", "conditions": "MCF7, 48 h, read-out: Activity"}, "NCI-H522": {"tested_on": "NCI-H522", "assay": "Cytotoxicity against human NCI-H522 cells assessed as cell growth at 10 uM after 48 hrs by SRB assay relative to control", "conditions": "NCI-H522, 48 h, read-out: Activity"}, "HCT-116": {"tested_on": "HCT-116", "assay": "Cytotoxicity against human HCT116 cells assessed as cell growth at 10 uM after 48 hrs by SRB assay relative to control", "conditions": "HCT-116, 48 h, read-out: Activity"}, "KM12": {"tested_on": "KM12", "assay": "Cytotoxicity against human KM12 cells assessed as cell growth at 10 uM after 48 hrs by SRB assay relative to control", "conditions": "KM12, 48 h, read-out: Activity"}, "SW-620": {"tested_on": "SW-620", "assay": "Cytotoxicity against human SW620 cells assessed as cell growth at 10 uM after 48 hrs by SRB assay relative to control", "conditions": "SW-620, 48 h, read-out: Activity"}, "M14": {"tested_on": "M14", "assay": "Cytotoxicity against human M14 cells assessed as cell growth at 10 uM after 48 hrs by SRB assay relative to control", "conditions": "M14, 48 h, read-out: Activity"}, "SK-MEL-2": {"tested_on": "SK-MEL-2", "assay": "Cytotoxicity against human SK-MEL-2 cells assessed as cell growth at 10 uM after 48 hrs by SRB assay relative to control", "conditions": "SK-MEL-2, 48 h, read-out: Activity"}, "SK-OV-3": {"tested_on": "SK-OV-3", "assay": "Cytotoxicity against human SKOV3 cells assessed as cell growth at 10 uM after 48 hrs by SRB assay relative to control", "conditions": "SK-OV-3, 48 h, read-out: Activity"}, "ACHN": {"tested_on": "ACHN", "assay": "Cytotoxicity against human ACHN cells assessed as cell growth at 10 uM after 48 hrs by SRB assay relative to control", "conditions": "read-out: Activity"}, "A549": {"tested_on": "A549", "assay": "Cytotoxicity against human A549 cells assessed as cell growth at 10 uM after 48 hrs by SRB assay relative to control", "conditions": "A549, 48 h, read-out: Activity"}, "K562": {"tested_on": "K562", "assay": "Cytotoxicity against human K562 cells assessed as cell growth at 10 uM after 48 hrs by SRB assay relative to control", "conditions": "K562, 48 h, read-out: Activity"}, "NCI-H226": {"tested_on": "NCI-H226", "assay": "Cytotoxicity against human NCI-H226 cells assessed as cell growth at 10 uM after 48 hrs by SRB assay relative to control", "conditions": "NCI-H226, 48 h, read-out: Activity"}, "NCI-H23": {"tested_on": "NCI-H23", "assay": "Cytotoxicity against human NCI-H23 cells assessed as cell growth at 10 uM after 48 hrs by SRB assay relative to control", "conditions": "NCI-H23, 48 h, read-out: Activity"}, "NCI-H460": {"tested_on": "NCI-H460", "assay": "Cytotoxicity against human NCI-H460 cells assessed as cell growth at 10 uM after 48 hrs by SRB assay relative to control", "conditions": "NCI-H460, 48 h, read-out: Activity"}, "HCC 2998": {"tested_on": "HCC 2998", "assay": "Cytotoxicity against human HCC2998 cells assessed as cell growth at 10 uM after 48 hrs by SRB assay relative to control", "conditions": "HCC 2998, 48 h, read-out: Activity"}, "HCT-15": {"tested_on": "HCT-15", "assay": "Cytotoxicity against human HCT15 cells assessed as cell growth at 10 uM after 48 hrs by SRB assay relative to control", "conditions": "HCT-15, 48 h, read-out: Activity"}, "SF-295": {"tested_on": "SF-295", "assay": "Cytotoxicity against human SF295 cells assessed as cell growth at 10 uM after 48 hrs by SRB assay relative to control", "conditions": "SF-295, 48 h, read-out: Activity"}, "SF-539": {"tested_on": "SF-539", "assay": "Cytotoxicity against human SF539 cells assessed as cell growth at 10 uM after 48 hrs by SRB assay relative to control", "conditions": "SF-539, 48 h, read-out: Activity"}, "LOX IMVI": {"tested_on": "LOX IMVI", "assay": "Cytotoxicity against human LOXIMVI cells assessed as cell growth at 10 uM after 48 hrs by SRB assay relative to control", "conditions": "read-out: Activity"}, "Malme-3M": {"tested_on": "Malme-3M", "assay": "Cytotoxicity against human MALME-3M cells assessed as cell growth at 10 uM after 48 hrs by SRB assay relative to control", "conditions": "read-out: Activity"}, "SK-MEL-28": {"tested_on": "SK-MEL-28", "assay": "Cytotoxicity against human SK-MEL-28 cells assessed as cell growth at 10 uM after 48 hrs by SRB assay relative to control", "conditions": "SK-MEL-28, 48 h, read-out: Activity"}, "SK-MEL-5": {"tested_on": "SK-MEL-5", "assay": "Cytotoxicity against human SK-MEL-5 cells assessed as cell growth at 10 uM after 48 hrs by SRB assay relative to control", "conditions": "SK-MEL-5, 48 h, read-out: Activity"}, "UACC-257": {"tested_on": "UACC-257", "assay": "Cytotoxicity against human UACC257 cells assessed as cell growth at 10 uM after 48 hrs by SRB assay relative to control", "conditions": "UACC-257, 48 h, read-out: Activity"}, "UACC-62": {"tested_on": "UACC-62", "assay": "Cytotoxicity against human UACC62 cells assessed as cell growth at 10 uM after 48 hrs by SRB assay relative to control", "conditions": "UACC-62, 48 h, read-out: Activity"}, "OVCAR-3": {"tested_on": "OVCAR-3", "assay": "Cytotoxicity against human OVCAR3 cells assessed as cell growth at 10 uM after 48 hrs by SRB assay relative to control", "conditions": "OVCAR-3, 48 h, read-out: Activity"}, "NCI/ADR-RES": {"tested_on": "NCI/ADR-RES", "assay": "Cytotoxicity against human NCI/ADR-RES cells assessed as cell growth at 10 uM after 48 hrs by SRB assay relative to control", "conditions": "read-out: Activity"}}}
{"smiles": "Cn1c2ccccc2c2c3c(=O)[nH]c(N)nc3c3c4cccnc4n(C)c3c21", "values": [{"measurement": "growth at 10 µM", "setting": "A498", "result": 97.5, "unit": "%"}, {"measurement": "growth at 10 µM", "setting": "RXF 393", "result": 87.4, "unit": "%"}, {"measurement": "growth at 10 µM", "setting": "[1]", "result": 128, "unit": "%"}, {"measurement": "growth at 10 µM", "setting": "BT-549", "result": 66, "unit": "%"}, {"measurement": "growth at 10 µM", "setting": "T47D", "result": 48.7, "unit": "%"}, {"measurement": "growth at 10 µM", "setting": "SNB-75", "result": 74.1, "unit": "%"}, {"measurement": "Activity", "setting": "MDA-MB-435", "result": 87.02, "unit": "%"}, {"measurement": "growth at 10 µM", "setting": "IGROV-1", "result": 94.2, "unit": "%"}, {"measurement": "growth at 10 µM", "setting": "UO-31", "result": 39.4, "unit": "%"}, {"measurement": "growth at 10 µM", "setting": "MCF7", "result": 45.2, "unit": "%"}, {"measurement": "growth at 10 µM", "setting": "NCI-H522", "result": 35, "unit": "%"}, {"measurement": "growth at 10 µM", "setting": "HCT-116", "result": 63, "unit": "%"}, {"measurement": "growth at 10 µM", "setting": "KM12", "result": 59, "unit": "%"}, {"measurement": "growth at 10 µM", "setting": "SW-620", "result": 72, "unit": "%"}, {"measurement": "growth at 10 µM", "setting": "M14", "result": 68.8, "unit": "%"}, {"measurement": "growth at 10 µM", "setting": "SK-MEL-2", "result": 68.5, "unit": "%"}, {"measurement": "growth at 10 µM", "setting": "SK-OV-3", "result": 87.2, "unit": "%"}, {"measurement": "growth at 10 µM", "setting": "ACHN", "result": 54.1, "unit": "%"}, {"measurement": "growth at 10 µM", "setting": "A549", "result": 92.9, "unit": "%"}, {"measurement": "growth at 10 µM", "setting": "K562", "result": 74, "unit": "%"}, {"measurement": "growth at 10 µM", "setting": "NCI-H226", "result": 65, "unit": "%"}, {"measurement": "growth at 10 µM", "setting": "NCI-H23", "result": 86.3, "unit": "%"}, {"measurement": "growth at 10 µM", "setting": "NCI-H460", "result": 65.5, "unit": "%"}, {"measurement": "growth at 10 µM", "setting": "HCC 2998", "result": 104, "unit": "%"}, {"measurement": "growth at 10 µM", "setting": "HCT-15", "result": 67.4, "unit": "%"}, {"measurement": "growth at 10 µM", "setting": "SF-295", "result": 94.1, "unit": "%"}, {"measurement": "growth at 10 µM", "setting": "SF-539", "result": 111, "unit": "%"}, {"measurement": "growth at 10 µM", "setting": "LOX IMVI", "result": 66, "unit": "%"}, {"measurement": "growth at 10 µM", "setting": "Malme-3M", "result": 119, "unit": "%"}, {"measurement": "growth at 10 µM", "setting": "SK-MEL-28", "result": 120, "unit": "%"}, {"measurement": "growth at 10 µM", "setting": "SK-MEL-5", "result": 74.7, "unit": "%"}, {"measurement": "growth at 10 µM", "setting": "UACC-257", "result": 129, "unit": "%"}, {"measurement": "growth at 10 µM", "setting": "UACC-62", "result": 87, "unit": "%"}, {"measurement": "growth at 10 µM", "setting": "OVCAR-3", "result": 98.2, "unit": "%"}, {"measurement": "growth at 10 µM", "setting": "NCI/ADR-RES", "result": 80.2, "unit": "%"}]}
